Test results as given in US20240180872A1, “METHODS AND COMPOUNDS OF CANNABIDIOL, MELATONIN AND AKBA FOR TREATING PANCREATIC CANCER” (priority 2021, published 2024).

Key:
MIAPaCa-2 cell line = experiment: Cytotoxicity assay (MTT, 72 hours, daily administration) in MIAPaCa-2; conditions: Homo sapiens, MIA PaCa-2, read-out: % VIABILITY ± S.D.
Procedure: Human pancreatic ductal adenocarcinoma (PANC-1 and MIAPaCa-2) cell lines were purchased by Sigma Aldrich (Milan, Italy) and cultured in DMEM high glucose medium (EuroClone, Milan, Italy) supplemented with 10% of fetal bovine serum (FBS), 2 mM L-glutamine, 100 IU/mL penicillin, 100 mg streptomycin and 1 mM sodium pyruvate. Cell lines were maintained at 37° C. with 5% CO2 and 95% of humidity.
3×10^4 cells/mL were seeded in 96-well plates in a final volume of 100 L/well. After one day of incubation, compounds or vehicles, alone or in combination, were added and six replicates were used for each treatment and all experiments were repeated three times. In all the experiments, the treatment was daily added, after washing with fresh medium. After 72 hours cell viability was investigated by adding 0.8 mg/mL of 3-[4,5-dimethylthiazol-2-yl]-2,5 diphenyl tetrazolium bromide (MTT) (Sigma Aldrich) to the media. After 3 h the supernatant was removed, and the pellet of salt crystals was solubilized with 100 μL/well of DMSO. The absorbance of the sample against a background control was measured at 570 nm using an ELISA reader microliter plate (BioTek Instruments, Winooski, VT, USA).
Cytotoxicity in PDAC cell lines: The effect of CBD, MLT and AKBA in reducing cell viability was evaluated at 72 hours, post daily administration, in PDAC cell lines. Cells were treated with different doses of CBD, MLT and AKBA (up to 1 mg) and percentage of cell viability was evaluated by the MTT assay. […] The compounds were administered daily for 72 hours, as in previous experiments at the desired doses. […] MTT assay was used to analyse the cell cytotoxicity.

[1] = tested on: PCEM004a endometrial cancer cell line; experiment: Cytotoxicity assay (MTT, 72 hours, daily administration) in PCEM004a; assay type: cell-based; conditions: Homo sapiens, read-out: % VIABILITY ± S.D.
Source text: The combinations were effective in other human tumor cell lines and we tested in glioblastoma cell line and endometrial cancer cell Additional tests include data obtained from two independent experiments, six wells for dose.

[2] = tested on: pancreatic adenocarcinoma associated genes; experiment: TaqMan Array gene expression in PANC-1, normalized for GAPDH; conditions: 24 hs, CBD 3.8, MLT 200, AKBA 7.5 micrograms/ml
Procedure: Total RNA from untreated or CBD, MLT, AKBA alone and in combination treated cell lines was extracted using Rneasy Mini kit (Qiagen, Milan, Italy). One microgram of total RNA from each sample was subjected to reverse transcription in a total volume of 20 μL using the High-Capacity cDNA Archive Kit (Applied Biosystem, Foster City, […], USA) according to the instructions. cDNAs were analyzed by qRT-PCR performed using an IQ5 Multicolor Real time PCR Detection system. Quantitative real-time gene expression was performed with the TaqMan® Array Human Pancreatic Adenocarcinoma 96-well Plate, containing 92 assays to pancreatic adenocarcinoma associated genes and 4 assays to candidate endogenous control genes, was purchased (Thermo Fisher, Grand Island, NY, USA) and used to evaluate the treatments in modulating PDAC-related genes (Table 1). Measurement of different housekeeping genes (GAPDH; HPRT1; GUSB) on the samples was used to normalize mRNA content. The gene expression levels of treated cell lines were expressed as relative fold compared with untreated or vehicle-treated cells.
To elucidate the molecular events induced by CBD, MLT and AKBA alone and in combination, 92 genes involved in PDAC progression and aggressiveness were evaluated by Taqman Array. Both cell lines were treated with CBD, MLT and AKBA alone and in combination, and the molecular pathways of PDAC associated gene were evaluated.
Target mRNA levels were normalized for GAPDH expression.

C=C(C)[C@@H]1CCC(C)=C[C@H]1c1c(O)cc(CCCCC)cc1O [CBD, 2-[(1R,6R)-3-methyl-6-prop-1-en-2-ylcyclohex-2-en-1-yl]-5-pentylbenzene-1,3-diol]
viability at 1.9 µg/mL (MIAPaCa-2 cell line): 74.8 ± 7.2% | viability at 3.8 µg/mL (MIAPaCa-2 cell line): 29.5 ± 1.9% | viability at 7.6 µg/mL (MIAPaCa-2 cell line): 9.2 ± 0.4% | viability at 15.2 µg/mL (MIAPaCa-2 cell line): 5.2 ± 0.4% | viability at 1.9 µg/mL ([1]; CBD 1.9 micrograms/ml): 74.8 ± 7.2% | viability at 3.8 µg/mL ([1]; CBD 3.8 micrograms/ml): 93.2 ± 4.2% | viability at 7.6 µg/mL ([1]; CBD 7.6 micrograms/ml): 93.4 ± 5.4% | viability at 15.2 µg/mL ([1]; CBD 15.2 micrograms/ml): 50.4 ± 3.4% | AKT3 mRNA relative expression ([2]; VEI 0.00): 0.00 | ARHGEF7 mRNA relative expression ([2]; VEI 0.00): 0.00 | BCL2 mRNA relative expression ([2]; VEI 0.00): 0.00 | CCND2 mRNA relative expression ([2]; VEI 0.00): 0.00 | CDKN2B mRNA relative expression ([2]; VEI 0.00): 0.35 | CYP2E1 mRNA relative expression ([2]; VEI 0.00): 0.00 | EGF mRNA relative expression ([2]; VEI 0.00): 0.00 | IGF1 mRNA relative expression ([2]; VEI 0.00): 0.00 | IL6 mRNA relative expression ([2]; VEI 0.00): 0.00 | KDR mRNA relative expression ([2]; VEI 0.00): 0.00 | KIT mRNA relative expression ([2]; VEI 0.00): 0.00 | MAPK3 mRNA relative expression ([2]; VEI 0.00): 0.01 | MMP1 mRNA relative expression ([2]; VEI 0.00): 0.00 | MMP3 mRNA relative expression ([2]; VEI 0.00): 0.00 | TGFA mRNA relative expression ([2]; VEI 0.00): 0.71 | TGFB2 mRNA relative expression ([2]; VEI 0.00): 0.08 | JAK2 mRNA relative expression ([2]; VEI 0.01): 0.01 | JAK3 mRNA relative expression ([2]; VEI 0.01): 0.01 | MMP7 mRNA relative expression ([2]; VEI 0.01): 0.01 | MMP9 mRNA relative expression ([2]; VEI 0.01): 0.01 | PK3CA mRNA relative expression ([2]; VEI 0.01): 0.02 | RAC2 mRNA relative expression ([2]; VEI 0.01): 0.01 | RB1 mRNA relative expression ([2]; VEI 0.01): 0.05 | TGFB3 mRNA relative expression ([2]; VEI 0.01): 0.00 | TGFBR1 mRNA relative expression ([2]; VEI 0.02): 0.03 | BRCA2 mRNA relative expression ([2]; VEI 0.03): 0.13 | CDKN2D mRNA relative expression ([2]; VEI 0.03): 0.03 | MDM2 mRNA relative expression ([2]; VEI 0.03): 0.04 | RHOB mRNA relative expression ([2]; VEI 0.03): 0.03 | CDKN2C mRNA relative expression ([2]; VEI 0.04): 0.03 | PK3R1 mRNA relative expression ([2]; VEI 0.04): 0.03 | PTGS2 mRNA relative expression ([2]; VEI 0.04): 0.00 | STATSB mRNA relative expression ([2]; VEI 0.04): 0.03 | MAPK1 mRNA relative expression ([2]; VEI 0.05): 0.06 | SMAD2 mRNA relative expression ([2]; VEI 0.05): 0.06 | CCND1 mRNA relative expression ([2]; VEI 0.06): 0.09 | MAP2K2 mRNA relative expression ([2]; VEI 0.06): 0.07 | PK3CD mRNA relative expression ([2]; VEI 0.06): 0.07 | TGFBR2 mRNA relative expression ([2]; VEI 0.06): 0.01 | VEGFA mRNA relative expression ([2]; VEI 0.06): 0.03 | VEGFB mRNA relative expression ([2]; VEI 0.06): 0.07 | CCNA2 mRNA relative expression ([2]; VEI 0.07): 0.01 | CCNE2 mRNA relative expression ([2]; VEI 0.07): 0.10 | EZF3 mRNA relative expression ([2]; VEI 0.07): 0.07 | SMAD4 mRNA relative expression ([2]; VEI 0.07): 0.07 | SOS1 mRNA relative expression ([2]; VEI 0.07): 0.06 | TGFB1 mRNA relative expression ([2]; VEI 0.07): 0.07 | MAP2K1 mRNA relative expression ([2]; VEI 0.08): 0.00 | MMP2 mRNA relative expression ([2]; VEI 0.08): 0.06 | VEGFC mRNA relative expression ([2]; VEI 0.08): 0.03 | CCNE1 mRNA relative expression ([2]; VEI 0.09): 0.08 | CDK2 mRNA relative expression ([2]; VEI 0.09): 0.13 | KRAS mRNA relative expression ([2]; VEI 0.09): 0.07 | RAC1 mRNA relative expression ([2]; VEI 0.09): 0.09 | REL mRNA relative expression ([2]; VEI 0.09): 0.10 | STAT2 mRNA relative expression ([2]; VEI 0.09): 0.03 | CDKN1B mRNA relative expression ([2]; VEI 0.10): 0.09 | CDKN2A mRNA relative expression ([2]; VEI 0.10): 0.22 | RELA mRNA relative expression ([2]; VEI 0.10): 0.06 | AKT1 mRNA relative expression ([2]; VEI 0.11): 0.09 | PK3CB mRNA relative expression ([2]; VEI 0.11): 0.08 | FIGF mRNA relative expression ([2]; VEI 0.14): 0.09 | TP53 mRNA relative expression ([2]; VEI 0.14): 0.24 | EZF4 mRNA relative expression ([2]; VEI 0.16): 0.16 | NFKB2 mRNA relative expression ([2]; VEI 0.16): 0.12 | EZF1 mRNA relative expression ([2]; VEI 0.17): 0.13 | SMAD3 mRNA relative expression ([2]; VEI 0.17): 0.16 | STAT1 mRNA relative expression ([2]; VEI 0.18): 0.10 | BRAF mRNA relative expression ([2]; VEI 0.22): 0.18 | BIRC5 mRNA relative expression ([2]; VEI 0.23): 0.09 | JAK1 mRNA relative expression ([2]; VEI 0.23): 0.22 | CDK4 mRNA relative expression ([2]; VEI 0.24): 0.21 | EGFR mRNA relative expression ([2]; VEI 0.24): 0.17 | RAF1 mRNA relative expression ([2]; VEI 0.25): 0.01 | CCNB1 mRNA relative expression ([2]; VEI 0.27): 0.31 | ERBB2 mRNA relative expression ([2]; VEI 0.27): 0.01 | SRC mRNA relative expression ([2]; VEI 0.27): 0.03 | GRB2 mRNA relative expression ([2]; VEI 0.31): 0.11 | BCL2L1 mRNA relative expression ([2]; VEI 0.35): 0.21 | HSP90AA1 mRNA relative expression ([2]; VEI 0.35): 0.35 | NFKB1 mRNA relative expression ([2]; VEI 0.35): 0.04 | RHOA mRNA relative expression ([2]; VEI 0.37): 0.30 | ELK1 mRNA relative expression ([2]; VEI 0.41): 0.07 | RELB mRNA relative expression ([2]; VEI 0.42): 0.23 | CDC42 mRNA relative expression ([2]; VEI 0.45): 0.04 | CDKN1A mRNA relative expression ([2]; VEI 0.49): 0.03 | AKT2 mRNA relative expression ([2]; VEI 0.50): 0.45 | HBEGF mRNA relative expression ([2]; VEI 0.53): 0.11 | NOTCH1 mRNA relative expression ([2]; VEI 1.03): 0.02 | STAT6 mRNA relative expression ([2]; VEI 1.38): 0.87 | STAT3 mRNA relative expression ([2]; VEI 4.45): 0.05
